Where two headings read alike, the source gives them in different places.
How the values were obtained:
[1] = Biodistribution of 177Lu-labeled αMSH analogues in mice bearing B16F10 mouse melanoma; format: in vivo, C57BL/6J mice; settings: mouse, iv, total radioactivity, C57BL/6J mice, B16F10 melanoma
Procedure: (§1) The B16-F10 mouse melanoma cells were cultured and inoculated in mice as described in Example 1.
(§2) For biodistribution studies, approximately 1-2 MBq of ^177Lu-labeled αMSH analogues via tail vein under anesthesia. At 1, 4, 24, and 120 h p.i., the mice were euthanized by CO2 inhalation. Organs/tissues were harvested and the radioactivity was measured as described in Example 1.

[2] = system: B16F10 mouse melanoma; assay: as above; format: in vivo, C57BL/6J mice; settings: C57BL/6J mice, B16F10 melanoma
Procedure: as §1, §2

## CCCC[C@H](NC(=O)CN1CCC(NC(=O)CN2CCN(CC(=O)O)CCN(CC(=O)O)CCN(CC(=O)O)CC2)CC1)C(=O)N[C@H]1CC(=O)NCCCC[C@@H](C(N)=O)N(C)C(=O)[C@H](Cc2c[nH]c3ccccc23)N(C)C(=O)[C@H](CCCNC(=N)N)N(C)C(=O)[C@@H](Cc2ccccc2)NC(=O)[C@H](Cc2c[nH]cn2)N(C)C1=O [^177Lu-labeled CCZ01099, metal not drawn]
[1]; male, seminal glands, 1 h p.i., read-out: Biodistribution, Seminal glands
  tissue uptake at 1 h: 0.06 ± 0.02 %ID/g
[1]; male, seminal glands, 4 h p.i., read-out: Biodistribution, Seminal glands
  tissue uptake at 4 h: 0.02 %ID/g
[1]; male, seminal glands, 24 h p.i., read-out: Biodistribution, Seminal glands
  tissue uptake at 24 h: 0.01 %ID/g
[1]; male, testes, 1 h p.i., read-out: Biodistribution, Testes
  tissue uptake at 1 h: 0.13 ± 0.02 %ID/g
[1]; male, testes, 4 h p.i., read-out: Biodistribution, Testes
  tissue uptake at 4 h: 0.03 %ID/g
[1]; male, testes, 24 h p.i., read-out: Biodistribution, Testes
  tissue uptake at 24 h: 0.03 %ID/g
[1]; male, testes, 120 h p.i., read-out: Biodistribution, Testes
  tissue uptake at 120 h: 0.02 ± 0.01 %ID/g
[1]; adrenal glands, 1 h p.i., read-out: Biodistribution, Adrenal glands
  tissue uptake at 1 h: 0.39 ± 0.13 %ID/g
[1]; adrenal glands, 4 h p.i., read-out: Biodistribution, Adrenal glands
  tissue uptake at 4 h: 0.19 ± 0.06 %ID/g
[1]; adrenal glands, 24 h p.i., read-out: Biodistribution, Adrenal glands
  tissue uptake at 24 h: 0.1 ± 0.04 %ID/g
[1]; adrenal glands, 120 h p.i., read-out: Biodistribution, Adrenal glands
  tissue uptake at 120 h: 0.03 ± 0.03 %ID/g
[1]; blood, 1 h p.i., read-out: Biodistribution, Blood
  tissue uptake at 1 h: 0.48 ± 0.22 %ID/g
[1]; blood, 4 h p.i., read-out: Biodistribution, Blood
  tissue uptake at 4 h: 0.05 ± 0.01 %ID/g
[1]; blood, 24 h p.i., read-out: Biodistribution, Blood
  tissue uptake at 24 h: 0.01 %ID/g
[1]; bone, 1 h p.i., read-out: Biodistribution, Bone
  tissue uptake at 1 h: 0.13 ± 0.03 %ID/g
[1]; bone, 4 h p.i., read-out: Biodistribution, Bone
  tissue uptake at 4 h: 0.06 ± 0.02 %ID/g
[1]; bone, 24 h p.i., read-out: Biodistribution, Bone
  tissue uptake at 24 h: 0.04 ± 0.01 %ID/g
[1]; bone, 120 h p.i., read-out: Biodistribution, Bone
  tissue uptake at 120 h: 0.02 ± 0.01 %ID/g
[1]; brain, 1 h p.i., read-out: Biodistribution, Brain
  tissue uptake at 1 h: 0.02 %ID/g
[1]; brain, 4 h p.i., read-out: Biodistribution, Brain
  tissue uptake at 4 h: 0.01 %ID/g
[1]; fat, 1 h p.i., read-out: Biodistribution, Fat
  tissue uptake at 1 h: 0.06 ± 0.02 %ID/g
[1]; fat, 4 h p.i., read-out: Biodistribution, Fat
  tissue uptake at 4 h: 0.01 %ID/g
[1]; fat, 24 h p.i., read-out: Biodistribution, Fat
  tissue uptake at 24 h: 0.01 %ID/g
[1]; fat, 120 h p.i., read-out: Biodistribution, Fat
  tissue uptake at 120 h: 0.01 %ID/g
[1]; heart, 1 h p.i., read-out: Biodistribution, Heart
  tissue uptake at 1 h: 0.17 ± 0.06 %ID/g
[1]; heart, 4 h p.i., read-out: Biodistribution, Heart
  tissue uptake at 4 h: 0.04 ± 0.01 %ID/g
[1]; heart, 24 h p.i., read-out: Biodistribution, Heart
  tissue uptake at 24 h: 0.03 %ID/g
[1]; heart, 120 h p.i., read-out: Biodistribution, Heart
  tissue uptake at 120 h: 0.02 %ID/g
[1]; intestine, 1 h p.i., read-out: Biodistribution, Intestine
  tissue uptake at 1 h: 0.25 ± 0.03 %ID/g
[1]; intestine, 4 h p.i., read-out: Biodistribution, Intestine
  tissue uptake at 4 h: 0.12 ± 0.06 %ID/g
[1]; intestine, 24 h p.i., read-out: Biodistribution, Intestine
  tissue uptake at 24 h: 0.23 ± 0.28 %ID/g
[1]; intestine, 120 h p.i., read-out: Biodistribution, Intestine
  tissue uptake at 120 h: 0.12 ± 0.16 %ID/g
[1]; kidneys, 1 h p.i., read-out: Biodistribution, Kidneys
  tissue uptake at 1 h: 4.15 ± 0.99 %ID/g
[1]; kidneys, 4 h p.i., read-out: Biodistribution, Kidneys
  tissue uptake at 4 h: 4.32 ± 2.06 %ID/g
[1]; kidneys, 24 h p.i., read-out: Biodistribution, Kidneys
  tissue uptake at 24 h: 1.61 ± 0.29 %ID/g
[1]; kidneys, 120 h p.i., read-out: Biodistribution, Kidneys
  tissue uptake at 120 h: 0.5 ± 0.02 %ID/g
[1]; liver, 1 h p.i., read-out: Biodistribution, Liver
  tissue uptake at 1 h: 0.41 ± 0.11 %ID/g
[1]; liver, 4 h p.i., read-out: Biodistribution, Liver
  tissue uptake at 4 h: 0.34 ± 0.1 %ID/g
[1]; liver, 24 h p.i., read-out: Biodistribution, Liver
  tissue uptake at 24 h: 0.32 ± 0.13 %ID/g
[1]; liver, 120 h p.i., read-out: Biodistribution, Liver
  tissue uptake at 120 h: 0.19 ± 0.02 %ID/g
[1]; lungs, 1 h p.i., read-out: Biodistribution, Lungs
  tissue uptake at 1 h: 0.54 ± 0.2 %ID/g
[1]; lungs, 4 h p.i., read-out: Biodistribution, Lungs
  tissue uptake at 4 h: 0.17 ± 0.06 %ID/g
[1]; lungs, 24 h p.i., read-out: Biodistribution, Lungs
  tissue uptake at 24 h: 0.07 ± 0.02 %ID/g
[1]; lungs, 120 h p.i., read-out: Biodistribution, Lungs
  tissue uptake at 120 h: 0.04 ± 0.01 %ID/g
[1]; muscle, 1 h p.i., read-out: Biodistribution, Muscle
  tissue uptake at 1 h: 0.1 ± 0.04 %ID/g
[1]; muscle, 4 h p.i., read-out: Biodistribution, Muscle
  tissue uptake at 4 h: 0.02 %ID/g
[1]; muscle, 24 h p.i., read-out: Biodistribution, Muscle
  tissue uptake at 24 h: 0.01 %ID/g
[1]; muscle, 120 h p.i., read-out: Biodistribution, Muscle
  tissue uptake at 120 h: 0.01 %ID/g
[1]; pancreas, 1 h p.i., read-out: Biodistribution, Pancreas
  tissue uptake at 1 h: 0.13 ± 0.05 %ID/g
[1]; pancreas, 4 h p.i., read-out: Biodistribution, Pancreas
  tissue uptake at 4 h: 0.03 ± 0.01 %ID/g
[1]; pancreas, 24 h p.i., read-out: Biodistribution, Pancreas
  tissue uptake at 24 h: 0.03 %ID/g
[1]; pancreas, 120 h p.i., read-out: Biodistribution, Pancreas
  tissue uptake at 120 h: 0.02 %ID/g
[1]; spleen, 1 h p.i., read-out: Biodistribution, Spleen
  tissue uptake at 1 h: 0.24 ± 0.08 %ID/g
[1]; spleen, 4 h p.i., read-out: Biodistribution, Spleen
  tissue uptake at 4 h: 0.13 ± 0.04 %ID/g
[1]; spleen, 24 h p.i., read-out: Biodistribution, Spleen
  tissue uptake at 24 h: 0.12 ± 0.02 %ID/g
[1]; spleen, 120 h p.i., read-out: Biodistribution, Spleen
  tissue uptake at 120 h: 0.07 ± 0.01 %ID/g
[1]; stomach, 1 h p.i., read-out: Biodistribution, Stomach
  tissue uptake at 1 h: 0.13 ± 0.02 %ID/g
[1]; stomach, 4 h p.i., read-out: Biodistribution, Stomach
  tissue uptake at 4 h: 0.59 ± 1.14 %ID/g
[1]; stomach, 24 h p.i., read-out: Biodistribution, Stomach
  tissue uptake at 24 h: 0.53 ± 0.48 %ID/g
[1]; stomach, 120 h p.i., read-out: Biodistribution, Stomach
  tissue uptake at 120 h: 0.12 ± 0.16 %ID/g
[1]; thyroid, 1 h p.i., read-out: Biodistribution, Thyroid
  tissue uptake at 1 h: 0.22 ± 0.09 %ID/g
[1]; thyroid, 4 h p.i., read-out: Biodistribution, Thyroid
  tissue uptake at 4 h: 0.07 ± 0.01 %ID/g
[1]; thyroid, 24 h p.i., read-out: Biodistribution, Thyroid
  tissue uptake at 24 h: 0.06 ± 0.01 %ID/g
[1]; thyroid, 120 h p.i., read-out: Biodistribution, Thyroid
  tissue uptake at 120 h: 0.05 ± 0.01 %ID/g
[1]; urine, 1 h p.i.
  excreta dose per gram or mL at 1 h: 227 ± 115 %ID/g
[1]; urine, 4 h p.i.
  excreta dose per gram or mL at 4 h: 49.1 ± 39.7 %ID/g
[1]; urine, 24 h p.i.
  excreta dose per gram or mL at 24 h: 0.46 ± 0.31 %ID/g
[1]; urine, 120 h p.i.
  excreta dose per gram or mL at 120 h: 0.09 ± 0.06 %ID/g
[2]; 1 h p.i.
  Biodistribution, B16F10 tumour: 4.49 ± 1.89 % ID/g
[2]; 4 h p.i.
  Biodistribution, B16F10 tumour: 4.42 ± 0.64 % ID/g
[2]; 24 h p.i.
  Biodistribution, B16F10 tumour: 2.04 ± 0.46 % ID/g
  Biodistribution, Brain: 0.00 ± 0.00 % ID/g
[2]; 120 h p.i.
  Biodistribution, B16F10 tumour: 0.49 ± 0.30 % ID/g
  Biodistribution, Blood: 0.00 ± 0.00 % ID/g
  Biodistribution, Brain: 0.00 ± 0.00 % ID/g
  Biodistribution, Seminal glands: 0.00 ± 0.00 % ID/g
